Laboratory results published in US4045298A, “Antibiotic XK-62-2 and process for production thereof” (priority 1972, dated 1977).
In brackets after ≈: the same amount, converted by molar mass.

Columns and labels:
[1] = test system: Bacillus subtilis No. 10707; assay: Activity (unit/mg) of isolated preparations; paper disk method using an agar plate; format: cell-based
Protocol: (§1) After the completion of fermentation, the culture liquor is adjusted to a pH of 2.0 with 12N sulfuric acid and stirred for 30 minutes. Then, about 10 kg of a filter aid, Radiolite No. 600 (product of Showa Kagaku Kogyo Co., Ltd., Japan) is added thereto and the microbial cells are removed by filtration. The filtrate is adjusted to a pH of 8.0 with 6N sodium hydroxide and passed through a column packed with about 50 l of a cation exchange resin, Amberlite IRC-50 (ammonia form). The active substance is adsorbed on the resin and the eluate is discarded. After washing the resin with water, the active substance is eluted out with 1N aqueous ammonia.
Active fractions are combined and concentrated in vacuo to about 5 l. The concentrate is then adjusted to a pH of 8.0 with 6N sulfuric acid and passed through a column packed with 1 l of an anion exchange resin, Dowex 1×2 (OH^- form). The column is washed with about 5 l of water and the effluent and the washings containing active substance are combined and are concentrated to 1/15 by volume. […] The resultant precipitate is removed by filtration and the filtrate is concentrated to 500 ml. The concentrate is adjusted to a pH of 4.5 with 6N sulfuric acid and 2.5 l of methanol is added thereto. […] The precipitate is separated by filtration and washed with methanol.
as §1, with “of” for “of a filter aid,”, “(trade name)” for “(product of Showa Kagaku Kogyo Co., Ltd., Japan)”, “The” for “The active substance is adsorbed on the resin and the”

Solubility = format: physicochemical
[2] = test system: Pseudomonas aeruginosa KY 8510; assay: In vivo protection of mice against bacterial infection; conditions: subcutaneous, inoculum 6.6×10^7 cells/mouse intraperitoneal
Protocol: In addition, the in vivo activity of XK-62-2 against pathogenic bacterial infections in mice is tested. […] They are then treated with various doses of the test antibiotic by subcutaneous injection.

[3] = test system: Proteus vulgaris Abbott JJ; assay: Minimum inhibitory concentration by agar dilution method; format: cell-based; conditions: agar dilution, Table 6, read-out: Minimum inhibitory concentration
Description: (§2) The comparative in vitro activities of these antibiotics against various microorganisms of the genus Proteus are shown in the following Table 6.
(§3) Minimum inhibitory concentration
(§4) (γ/ml : by agar dilution method)

Proteus mirabilis No. 39 = assay: as above; format: cell-based; conditions: NO.39, agar dilution, Table 6, read-out: Minimum inhibitory concentration
Description: as §2, §3, §4

[4] = test system: Pseudomonas aeruginosa BMH No. 1; assay: In vivo protection of mice against bacterial infection; conditions: subcutaneous, inoculum 3.8×10^8 cells/mouse intraperitoneal
Protocol: In addition, the in vivo activity of XK-62-2 against pathogenic bacterial infections in mice is tested. The mice are infected with an inoculum of 3.8× 10^8 cells/mouse of Pseudomonas aeruginosa BMH No. 1 or 6.6× 10^7 cells/mouse of Pseudomonas aeruginosa KY 8510 by intraperitoneal injection. They are then treated with various doses of the test antibiotic by subcutaneous injection. The effect of XK-62-2 on the protection of the bacterial infections is shown in the following Table 8 wherein ten mice are used in each test.

[5] = test system: Gram-positive and Gram-negative bacteria; assay: Antibacterial activity against Gram-positive and Gram-negative bacteria (summary); format: cell-based
[6] = test system: Diplococcus pneumoniae III; assay: In vivo activity against pathogenic bacterial infections in mice
Description: (§5) The in vivo activity of XK-62-2 against pathogenic bacterial infections in mice is further tested using various Gram-positive and Gram-negative bacteria. The mice are infected with an inoculum of the bacteria by intraperitonial injection and then treated with the test antibiotic by subcutaneous injection.

[7] = test system: Staphylococcus aureus Smith; assay: as above
Description: as §5

[8] = test system: Streptococcus pyogenes S23; assay: as above
Description: as §5

[9] = test system: Klebsiella pneumoniae No. 8045; assay: as above
Description: as §5

Proteus mirabilis 1287 = assay: as above
Description: as §5

[10] = test system: Escherichia coli GN 2411-5; assay: as above
Description: as §5

CNC[C@@H]1CC[C@@H](N)[C@@H](O[C@H]2[C@H](O)[C@@H](O[C@H]3OC[C@](C)(O)[C@H](NC)[C@H]3O)[C@H](N)C[C@@H]2N)O1 [XK-62-2]
Activity ([1]; Example 1, purified preparate, free base): 950 unit/mg | Activity ([1]; Example 2, free base, Mm-628 ATCC 21827): 932 unit/mg | Activity ([1]; Example 3, purified preparate, free base): about 950 unit/mg | Activity ([1]; Example 4, free base): 900 unit/mg | Activity ([1]; Example 5, free base): 975 unit/mg | Activity ([1]; Example 6, free base, Micromonospora purpurea ATCC 15835): 925 unit/mg | Activity ([1]; Example 7, free base, Micromonospora echinospora ATCC 15837 NRRL 2985): 898 unit/mg | Activity ([1]; Example 7, free base, Micromonospora echinospora var. ferruginea NRRL 2995): 912 unit/mg | Activity ([1]; Example 7, free base, Micromonospora echinospora var. pallida NRRL 2996): 925 unit/mg | Solubility in acetone (Solubility; acetone): soluble | Solubility in chloroform, benzene, ethyl acetate, butyl acetate, ether, butanol, petroleum ether, n-hexane (Solubility; chloroform, benzene, ethyl acetate, butyl acetate, ether, butanol, petroleum ether, n-hexane, etc.): insoluble | Solubility in ethanol (Solubility; ethanol): soluble | Solubility in methanol (Solubility; methanol): soluble | Solubility in ordinary organic solvents (Solubility; ordinary organic solvents): poorly soluble | Solubility in water (Solubility; water): very soluble | Survival of mice ([2]; 0.125 mg/mouse): 0% | Survival of mice ([2]; 0.25 mg/mouse): 30% | Survival of mice ([2]; 0.5 mg/mouse): 50% | Survival of mice ([2]; 1 mg/mouse): 80% | Survival of mice ([2]; 2 mg/mouse): 100% | MIC [3]: 0.021 µg/mL (≈ 0.0453 µM) | MIC (Proteus mirabilis No. 39): 0.021 µg/mL (≈ 0.0453 µM) | Survival of mice ([4]; 0.125 mg/mouse): 0% | Survival of mice ([4]; 0.25 mg/mouse): 10% | Survival of mice ([4]; 0.5 mg/mouse): 50% | Survival of mice ([4]; 1 mg/mouse): 90% | Survival of mice ([4]; 2 mg/mouse): 100% | Antibacterial activity ([5]; both in vitro and in vivo, broad range of Gram-positive and Gram-negative bacteria): very strong antibacterial activity | In vitro activity relative to gentamicin ([5]; in vitro, vs gentamicin): comparable | In vitro activity relative to streptomycin and kanamycin ([5]; in vitro, vs streptomycin and kanamycin): far superior | ED50 ([6]; Streptococcus pneumoniae, sc, subcutaneous, challenge inoculum 4.4×10^3 cells/mouse, read-out: Median effective dose [ED50]): 6.6 ± 1.9 mg/kg | Ratio XK-62-2/gentamicin complex ([6]; ratio of ED50): 0.86 | ED50 ([7]; Staphylococcus aureus, sc, subcutaneous, challenge inoculum 1.8×10^8 cells/mouse, read-out: Median effective dose [ED50]): 0.28 ± 0.04 mg/kg | Ratio XK-62-2/gentamicin complex ([7]; ratio of ED50): 1.33 | ED50 ([8]; Streptococcus pyogenes, S23, sc, subcutaneous, challenge inoculum 2.7×10^7 cells/mouse, read-out: Median effective dose [ED50]): 17.7 ± 4.8 mg/kg | Ratio XK-62-2/gentamicin complex ([8]; ratio of ED50): 1.50 | ED50 ([9]; Klebsiella pneumoniae, NO.8045, sc, subcutaneous, challenge inoculum 1.4×10^8 cells/mouse, read-out: Median effective dose [ED50]): 5.7 ± 1.4 mg/kg | Ratio XK-62-2/gentamicin complex ([9]; ratio of ED50): 0.74 | ED50 (Proteus mirabilis 1287; Proteus mirabilis, 1287, sc, subcutaneous, challenge inoculum 1.8×10^8 cells/mouse, read-out: Median effective dose [ED50]): 10.4 ± 4.4 mg/kg | Ratio XK-62-2/gentamicin complex (Proteus mirabilis 1287; ratio of ED50): 0.97 | ED50 ([10]; Escherichia coli, GN2411, sc, subcutaneous, challenge inoculum 3.6×10^6 cells/mouse, read-out: Median effective dose [ED50]): 10.8 ± 4.1 mg/kg | Ratio XK-62-2/gentamicin complex ([10]; ratio of ED50): 1.01
